This is an account of results in patent US20080312229A1, “Organic Compounds” (Novartis AG, priority 2005, published 2008).

The target of this assay is T1, human CRTh2 (Homo sapiens, UniProt Q9Y5Y4).
T1 construct: expressed in transfected cells; host or cells: CHO.K1 (Chinese Hamster Ovary) cells, membrane preparation
T1 sequence (Q9Y5Y4 1-395): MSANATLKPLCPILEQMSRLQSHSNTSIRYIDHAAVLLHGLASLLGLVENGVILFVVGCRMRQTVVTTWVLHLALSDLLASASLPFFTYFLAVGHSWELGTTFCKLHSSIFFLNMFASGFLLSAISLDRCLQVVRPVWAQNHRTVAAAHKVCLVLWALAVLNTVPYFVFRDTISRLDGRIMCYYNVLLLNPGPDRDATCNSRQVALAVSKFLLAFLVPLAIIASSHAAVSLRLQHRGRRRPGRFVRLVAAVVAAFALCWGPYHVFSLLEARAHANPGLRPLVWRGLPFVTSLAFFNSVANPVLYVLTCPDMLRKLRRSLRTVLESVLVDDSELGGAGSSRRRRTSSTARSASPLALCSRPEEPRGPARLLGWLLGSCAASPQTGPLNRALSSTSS
Put plainly: CRTh2 [3H]-PGD2 binding assay (called SPA binding assay; filtration binding protocol described). The conditions noted are these: competition with [3H]-PGD2 (2.5 nM), CHO.K1-CRTh2 membranes. The method, then:
The binding of CRTh2 modulators is determined using membranes prepared from human CRTh2-expressing Chinese Hamster Ovary cells (CHO.K1-CRTh2). To produce cell membranes CHO.K1-CRTh2 cells cultured in roller bottles are harvested using cell dissociation buffer (Invitrogen). The cells are pelleted by centrifugation (167 g, 5 min). The cell pellet is incubated in hypotonic buffer (15 mM Tris-OH, 2 mM MgCl2, 0.3 mM EDTA, 1 mM EGTA, 1× Complete™ tablet) at 4° C. for 30 min. At 4° C. cells are homogenized using a Polytron® (IKA Ultra Turrax T25) for 5 bursts of 1 second. The homogenate is centrifuged (Beckman Optima TM TL Ultracentrifuge, 48000 g, 30 min at 4° C.). […]
The binding of [^3H]-PGD2 (157 Ci/mmol) to CHO.K1-CRTh2 membranes is determined in the absence (total binding) and presence (non-specific binding) of unlabelled PGD2 (1 μM). […]
The plates are incubated at room temperature on a shaker for 1 hour, and then harvested (Tomtec Harvester 9600) onto GF/C filter plates using wash buffer (10 mM HEPES-KOH, pH 7.4). […] Plates are then counted using a Packard Top Count instrument, Plates are then read on the Packard Topcount with the 3H Scintillation program (1 min per well).
Ki (dissociation constant for the inhibition) values for the CRTh2 modulators are reported. Ki values are determined using Sigma Plot™ software, using the Cheng-Prussoff equation. […]

As a reminder, the Ki is a measure of affinity in units of concentration, obtained from inhibition or displacement. The low end stands for a stronger hold on the target, the high end for a looser hold on the target. For the compound `Cc1c(CC(=O)O)c2cccnc2n1CCc1ccccc1` [Example 1, (2-Methyl-1-phenethyl-1H-pyrrolo[2,3-b]pyridine-3-yl)-acetic acid], affinity was put at a Ki of 716 nM.
